In US20040044037A1, “Amidino-urea serotonin receptor ligands and compositions, their pharmaceutical uses, and methods for their snythesis” (priority 2003, published 2004) one finds Ki data, which are given here for 15 compounds.

Where two headings read alike, the source gives them in different places. Where only a bound is given, the exact number is not on record here.

Assay [1] concerns the target T1, human 5-HT6 (h5-HT6) receptors (Homo sapiens, UniProt P50406).
T1 construct: purchased Receptor Biology, Inc. (Beltsville, Md.); host or cells: HEK-293 cells
Nature of the assay: Competition radioligand binding, h5-HT6.

Assay [2] addresses T2, human 5-HT1a receptors (Homo sapiens, UniProt P08908).
T2 construct: expressed in transfected cells; host or cells: CHO K1 cells
T2 sequence (P08908 1-422): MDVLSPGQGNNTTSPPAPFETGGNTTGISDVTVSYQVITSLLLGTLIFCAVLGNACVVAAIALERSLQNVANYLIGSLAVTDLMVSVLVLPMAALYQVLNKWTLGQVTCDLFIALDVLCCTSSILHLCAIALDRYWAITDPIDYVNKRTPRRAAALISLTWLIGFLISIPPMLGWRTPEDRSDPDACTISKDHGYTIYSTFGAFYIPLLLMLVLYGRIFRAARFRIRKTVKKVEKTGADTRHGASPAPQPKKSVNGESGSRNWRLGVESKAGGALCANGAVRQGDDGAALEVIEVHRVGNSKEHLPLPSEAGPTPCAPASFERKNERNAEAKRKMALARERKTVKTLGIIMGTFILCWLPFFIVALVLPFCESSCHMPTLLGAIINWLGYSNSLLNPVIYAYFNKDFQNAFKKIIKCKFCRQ
Nature of the assay: Competition radioligand binding, h5-HT1a. The procedure:
(§1) Cells and Membrane Preparation: HEK 293 cells stably expressing human 5-HT7B (h5-HT7b) receptors were grown in Dulbecco's Modified Eagle's Medium (DMEM; Gibco) without sodium pyruvate and containing 4.5 g/L glucose, L-glutamine/penicillin-streptomycin (Gemini), 10% fetal bovine serum and 250 mg/l of the antibiotic, G418 (Geneticin) as previously described (Jasper, J. R., Kosaka, A., To, Z. P., Chang, D. J. and Eglen, R. M. (1997) Cloning, expression and pharmacology of a truncated splice variant of the human 5-ht7 receptor (h5-ht7b). Br. J. Pharmacol. 122(1):126-132.). Cell pellets were homogenized in approximately 50 mL of homogenization buffer (buffer A) containing: 50 mM Tris (pH 7.4), 2 mM EGTA, 0.32 M sucrose, 10 μM PMSF, 1 μg/mL leupeptin, 5 μg/mL Pepstatin A, and 5 μg/mL aprotinin using an UltraTurax homogenizer (Tekmar Company, Cincinnati, Ohio) at 80% maximum setting three times for 10 sec. Cell pellets were centrifuged at 4° C. at 1,500×g for 10 min in a Beckman GS-6R centrifuge. Pellets were resuspended in buffer A, homogenized and centrifuged as described above. Pooled supernatants were transferred to centrifuge bottles and centrifuged at 4° C. at 20,000×g for 30 min in a Beckman J2-HS centrifuge. Cell pellets were resuspended in buffer A and were centrifuged at 4° C. at 20,000×g for 30 min. Cell pellets were resuspended in buffer A and stored at −70° C. in aliquots of 2.5 mg/mL total membrane protein. Total membrane protein was assessed utilizing a BCA kit (Pierce; Rockford, Ill.). Membranes containing human 5-HT1a or 5HT2a receptors expressed in CHO K1 cells were prepared as described above.
(§2) Radioligand Binding Assays: For 5-HT7 saturation binding experiments, HEK-293 cell membranes expressing h5-HT7 receptors (5-10 μg membrane protein/well) were incubated in duplicate with [^3H]5-CT (approximately 0.2 nM) in binding assay buffer containing: 50 mM HEPES (pH 7.4), 0.5 mM EDTA, 10 mM MgCl2, 10 μM pargyline to inhibit monoamine oxidase activity, and 0.1% sodium ascorbate, in a final volume of 200 μL in 96-well polypropylene plates for 2 hours at 37° C. Nonspecific binding was determined by incubating membranes with 1 μM 5-HT. All radioligand binding assays were stopped by rapid filtration onto 96-well GF/C filter plates (Packard) soaked in 0.1% polyethylenimine. Filters were washed three times with ice-cold phosphate-buffered saline (PBS) wash buffer containing 50 mM NaPO4 (pH 7.4), 0.9% NaCl, 2 mM MgCl2 and 0.02% NaN3. The filters were then counted using liquid scintillation in a Packard Topcount scintillation counter.
(§3) Data Analysis: Radioligand binding experiments were analyzed with Prism™ (Graphpad, San Diego, Calif.), a computer graphics and statistics program. IC50 values and Hill slopes for compounds were generated by nonlinear regression using Prism™. Values for Ki calculated from IC50 values by the Cheng and Prussoff equation (Cheng, Y. and Prusoff, W. H., (1973), “Relationship between the inhibition constant (Ki) and the concentration of inhibitor which causes 50 per cent inhibition (I50) of an enzymatic reaction.” Biochemical Pharmacol. 22:3099-3108).

Assay [3] concerns the target T3, human D2S dopamine (hD2S-DA) receptors (Homo sapiens, UniProt P14416).
T3 construct: purchased Receptor Biology, Inc. (Beltsville, Md.); host or cells: A9 L cells
Briefly: Competition radioligand binding, hD2S dopamine.

In assay [4] the target is T4, human 5-HT7B (h5-HT7b) receptors (Homo sapiens, UniProt P34969).
T4 construct: expressed in transfected cells
T4 sequence (P34969 1-432 limits assumed): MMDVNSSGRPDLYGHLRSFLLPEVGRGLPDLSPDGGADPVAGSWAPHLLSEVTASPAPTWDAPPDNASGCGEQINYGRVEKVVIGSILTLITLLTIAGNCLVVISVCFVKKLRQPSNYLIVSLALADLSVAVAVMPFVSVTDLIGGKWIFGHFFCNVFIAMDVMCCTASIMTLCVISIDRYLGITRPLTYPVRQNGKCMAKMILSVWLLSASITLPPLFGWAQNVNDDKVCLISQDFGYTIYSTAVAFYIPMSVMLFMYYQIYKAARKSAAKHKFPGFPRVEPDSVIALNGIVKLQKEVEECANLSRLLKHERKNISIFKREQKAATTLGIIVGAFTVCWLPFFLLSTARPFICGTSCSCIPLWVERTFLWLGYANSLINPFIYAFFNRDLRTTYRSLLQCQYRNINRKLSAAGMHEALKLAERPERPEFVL
Nature of the assay: Competition radioligand binding, h5-HT7b. In a few lines: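 Membranes from HEK 293 cells stably expressing human 5-HT7b incubated with ~0.2 nM [3H]5-CT and varying compound 2 h at 37 °C in HEPES buffer pH 7.4 with pargyline. Nonspecific binding with 1 μM 5-HT; filtration, scintillation counting; IC50 by nonlinear regression converted to Ki via Cheng–Prusoff.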

In assay [5] the target is T5, human 5HT2a receptors (Homo sapiens, UniProt P28223).
T5 construct: expressed in transfected cells; host or cells: CHO K1 cells
T5 sequence (P28223 whole entry): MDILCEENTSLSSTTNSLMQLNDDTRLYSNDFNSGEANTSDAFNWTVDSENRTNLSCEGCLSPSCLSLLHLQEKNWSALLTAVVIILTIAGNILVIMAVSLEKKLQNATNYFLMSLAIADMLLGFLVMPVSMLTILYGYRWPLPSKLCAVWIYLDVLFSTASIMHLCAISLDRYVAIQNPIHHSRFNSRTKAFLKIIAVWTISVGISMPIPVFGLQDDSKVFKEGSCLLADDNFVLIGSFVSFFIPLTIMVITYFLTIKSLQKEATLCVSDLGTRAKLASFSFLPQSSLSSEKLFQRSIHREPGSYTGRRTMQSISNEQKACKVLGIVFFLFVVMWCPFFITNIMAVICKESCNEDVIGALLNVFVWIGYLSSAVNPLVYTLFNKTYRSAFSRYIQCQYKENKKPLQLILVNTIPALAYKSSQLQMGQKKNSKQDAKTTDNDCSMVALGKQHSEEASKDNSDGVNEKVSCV
Briefly: Competition radioligand binding, 5-HT2A. The procedure:
as §1, §2, §3

Where [6] appears, read: [3H]LSD, membranes of HEK-293 cells, read-out: Ki 5-HT6.
[7] abbreviates: [3H]5-CT, membranes of CHO K1 cells, read-out: Ki 5-HT1A.
[8] abbreviates: [3H]Spiperone, membranes of A9 L cells, read-out: Ki D2.
Where [9] appears, read: [3H]5-CT, membranes of HEK 293 cells, read-out: Ki 5-HT7.
Setting [10] is: [3H]Ketanserin, membranes of CHO K1 cells, read-out: Ki 5-HT2A.

T1 sequence (P50406 whole entry): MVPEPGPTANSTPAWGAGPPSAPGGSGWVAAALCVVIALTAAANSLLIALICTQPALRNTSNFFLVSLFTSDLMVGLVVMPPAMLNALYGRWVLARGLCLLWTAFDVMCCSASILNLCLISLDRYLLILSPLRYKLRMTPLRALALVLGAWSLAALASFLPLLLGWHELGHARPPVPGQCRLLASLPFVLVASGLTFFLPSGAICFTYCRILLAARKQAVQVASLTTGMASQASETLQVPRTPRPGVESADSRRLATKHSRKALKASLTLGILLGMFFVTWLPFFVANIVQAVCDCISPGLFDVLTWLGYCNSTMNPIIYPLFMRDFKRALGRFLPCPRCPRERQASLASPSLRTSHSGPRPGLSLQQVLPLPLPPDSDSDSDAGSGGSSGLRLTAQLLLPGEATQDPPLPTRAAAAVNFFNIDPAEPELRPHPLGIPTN
T3 sequence (P14416 1-414 isoform P14416-2): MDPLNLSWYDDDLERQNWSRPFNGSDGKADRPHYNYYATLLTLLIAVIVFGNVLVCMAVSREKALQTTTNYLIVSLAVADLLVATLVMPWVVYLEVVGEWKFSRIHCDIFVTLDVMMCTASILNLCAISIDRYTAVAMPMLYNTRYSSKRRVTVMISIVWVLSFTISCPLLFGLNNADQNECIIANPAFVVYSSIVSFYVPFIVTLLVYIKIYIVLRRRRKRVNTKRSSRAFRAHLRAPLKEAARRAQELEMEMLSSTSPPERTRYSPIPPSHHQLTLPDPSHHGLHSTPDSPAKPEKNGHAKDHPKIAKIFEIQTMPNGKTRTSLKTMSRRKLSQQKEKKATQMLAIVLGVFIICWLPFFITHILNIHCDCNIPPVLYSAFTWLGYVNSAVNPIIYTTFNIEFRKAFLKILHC

For `N=C(NCc1cccc2ccccc12)NC(=O)N1CCN(C/C=C/c2ccccc2)CC1` [Example 24, N-(1-Naphthylmethyl)-N′-({4-[(E)-3-phenyl-2-propenyl]-1-piperazinyl}carbonyl)guanidine], the Ki is 1910 nM in assay [1] (setting [6]); 2620 nM in assay [2] (setting [7]); 820 nM in assay [3] (setting [8]); 3.2 nM in assay [4] (setting [9]); 78 nM in assay [5] (setting [10]).
`N=C(NCc1cccc2ccccc12)NC(=O)N1CCC(Nc2ccccc2)CC1` [Example 25, N-[(4-Anilino-1-piperidinyl)carbonyl]-N-(1-naphthylmethyl)guanidine]: the inhibition constant (Ki) was above 10000 nM in assay [1]; 2590 nM in assay [2]; 1470 nM in assay [3]; 7.4 nM in assay [4]; 120 nM in assay [5].
In the case of `N=C(NCc1cccc2ccccc12)NC(=O)N1CCC(Cc2ccccc2)CC1` [Example 29, N-[(4-Benzyl-1-piperidinyl)carbonyl]-N′-(1-naphthylmethyl)guanidine], the inhibitory constant (Ki) is above 10000 nM in assay [1] (setting [6]); 2690 nM in assay [2] (setting [7]); above 2500 nM in assay [3] (setting [8]); 16 nM in assay [4] (setting [9]); 170 nM in assay [5] (setting [10]).
For `N=C(NCc1cccc2ccccc12)NC(=O)N[C@@H](Cc1ccc(O)cc1)C(N)=O` [Example 35], the Ki in assay [1] (setting [6]) was 460 nM; in assay [2] (setting [7]), above 4000 nM; in assay [3] (setting [8]), 630 nM; in assay [4] (setting [9]), 5.1 nM; in assay [5] (setting [10]), 0.92 nM.
For `N=C(NCc1cccc2ccccc12)NC(=O)N1CCC2(CC1)C(=O)NCN2c1ccccc1` [Example 36, N-(1-Naphthylmethyl)-N′-[(4-oxo-1-phenyl-1,3,8-triazaspiro[4.5]dec-8yl)carbonyl]guanidine] the same measures were 740 nM, 580 nM, 340 nM, 11 nM and 33 nM.
On the same counts, the results for `N=C(NCc1cccc2ccccc12)NC(=O)NC1CCCc2ccccc21` (stereo not drawn) [Example 40, 1-{[({Imino[(1-naphthylmethyl)amino]methyl}amino)carbonyl]amino}-1,2,3,4-tetrahydronaphthalene] are 590 nM, 540 nM, 1700 nM, 24 nM and 4.1 nM.
On the same counts, the results for `N=C(NCc1cccc2ccccc12)NC(=O)NC[C@@H]1CCCC[C@@H]1O` [Example 41, 1-({[([({[(1S,2S)2-Hydroxycyclohexyl]methyl}amino)carbonyl]amino}(imino)methyl]amino}methyl)naphthalene] are 340 nM, 54 nM, 1070 nM, 8.9 nM and 2 nM.
As to `N=C(NCc1cccc2ccccc12)NC(=O)NC1CCc2ccccc21` (stereo not drawn) [Example 43, 1-({[{[(2,3-Dihydro-1H-inden-1-ylamino)carbonyl]amino}(imino)methyl]amino}methyl)naphthalene], the Ki turned out to be 900 nM in assay [1] (setting [6]); 630 nM in assay [2] (setting [7]); 2190 nM in assay [3] (setting [8]); 22 nM in assay [4] (setting [9]); 4.8 nM in assay [5] (setting [10]).
On the same counts, the results for `COc1ccccc1CN1CCC(CNC(=O)NC(=N)NCc2cccc3ccccc23)CC1` [Example 45, 4-({[({Imino[(1-naphthylmethyl)amino]methyl}amino)carbonyl]amino}methyl)-1-(2-methoxybenzyl)piperidine] are 1550 nM, 600 nM, 500 nM, 21 nM and 3.9 nM.
As to `N=C(NCc1cccc2ccccc12)NC(=O)NC[C@@H]1CCCC[C@H]1O` [Example 46, 1-({[{[({[(1S,2R)-2-Hydroxycyclohexyl]methyl}amino)carbonyl]amino}(imino)methyl]amino}methyl)naphthalene], the Ki in assay [1] (setting [6]) was determined as 500 nM; in assay [2] (setting [7]), 49 nM; in assay [3] (setting [8]) it was 410 nM; in assay [4] (setting [9]) it was 9.8 nM; in assay [5] (setting [10]), 0.6 nM.
On the same counts, the results for `N=C(NCc1cccc2ccccc12)NC(=O)NCC1(O)CCCCC1` [Example 50, 1-({[[({[(1-Hydroxycyclohexyl)methyl]amino}carbonyl)amino](imino)methyl]amino}methyl)naphthalene] are 620 nM, 47 nM, 1070 nM, 26 nM and 0.25 nM.
On the same counts, the results for `CCOC(=O)N1CCN(C(=O)NC(=N)NCc2cccc3ccccc23)CC1` [Example 51, Ethyl 4-[({imino[(1-naphthylmethyl)amino]methyl}amino)carbonyl]-1-piperazine carboxylate] are above 10000 nM, above 4000 nM, above 2500 nM, 15 nM and 18 nM.
On the same counts, the results for `COc1cccc(CCNC(=O)NC(=N)NCc2cccc3ccccc23)c1OC` [Example 53, 1-({[({[(2,3-Dimethoxyphenethyl)amino]carbonyl}amino)(imino)methyl]amino}methyl)naphthalene] are 1870 nM, 170 nM, 290 nM, 62 nM and 0.8 nM.
For the compound `CNC(=O)NC(=N)NCc1cccc2ccccc12` [Example 54, 1-{[(1-Imino{[(methylamino)carbonyl]amino}methyl)amino]methyl}naphthalene], the Ki in assay [1] (setting [6]) is 2450 nM; in assay [2] (setting [7]), 2450 nM; in assay [3] (setting [8]), above 2500 nM; in assay [4] (setting [9]), 13 nM; in assay [5] (setting [10]) it was 9.6 nM.
Take `C[C@@H](O)CNC(=O)NC(=N)NCc1cccc2ccccc12` [Example 55, 1-({[[({[(2R)-2-Hydroxypropyl]amino}carbonyl)amino](imino)methyl]amino}methyl)naphthalene]: the inhibition constant (Ki) is 2320 nM in assay [1] (setting [6]); 1720 nM in assay [2] (setting [7]); above 2500 nM in assay [3] (setting [8]); 10 nM in assay [4] (setting [9]); 1.5 nM in assay [5] (setting [10]).
